From ChEMBL document CHEMBL3507680, “University of Dundee, Gates Library screen for HepG2 cell viability”

Test: Human HepG2 cell viability assay in 384 well format
Assay type: toxicity, cell-based
Set-up: dose 125 nL, time 70.5 hour; cytotoxicity at 70.5 h: concentration not given beside the values
Conditions: HepG2 cells, read-out: Inhibition

Structure (SMILES) | cytotoxicity at 70.5 h [%]
CCC1(CC)Cc2ccccc2-c2nc(CN(C)C)nc(O)c21 | 27.5
O=C(O)c1nnn(-c2ccc(OC(F)(F)F)cc2)c1-c1ccncc1 | -10.5
NC(=O)c1ccc2c(c1)nc1n2CCN(Cc2ccco2)C1 | -8.52
COc1cccc2c1ccn2CCC(=O)N1CCCC(C(=O)O)C1 (centres undefined) | 18.7
CC(C)N1CCc2c(C#N)c(NCc3ccco3)n3cnnc3c2C1 | -10.3
CC(C)CNC(=O)c1c(-n2cnnn2)sc2c1CCC2 | -13.7
CN(C(=O)Cn1nc(-c2cccs2)ccc1=O)C1CCS(=O)(=O)C1 (centres undefined) | 11.2
Cn1ncc2c1NC(=O)CC2c1ccc(Cl)cc1Cl (centres undefined) | -15
Cc1c[nH]nc1C1CN(c2ncccn2)CCO1 (centres undefined) | -3.49
c1cc(C2CN(C3CCCCC3)C2)n[nH]1 | 17.8
Cc1cc(C(F)(F)F)nc(C2CCN(C(=O)CO)CC2)n1 | -6.47
Cc1nn(C)cc1-c1cc(C(=O)NCC(C)(C)c2ccc(F)cc2)n[nH]1 | 4.21
Cc1nn(C)cc1-c1cc(C(=O)NCC(C)(C)c2ccccc2F)n[nH]1 | 17.9
Cc1nn(C)cc1-c1cc(C(=O)NCC(C)(C)c2cccc(F)c2)n[nH]1 | 1.66
Cc1cc(N(C)C)nc(C2(C)CCCN2CC(N)=O)n1 (centres undefined) | -2.11
CC1(c2[nH]ncc2C(N)=O)CCN(S(=O)(=O)c2ccccc2)CC1 | -2.57
Cc1cc(O)nc(C2CCN(C(=O)CO)CC2)n1 | -3.54
CN(CC1(C)COC1)C(=O)c1cc(-c2ccn(C)n2)nc2ccccc12 | 14.1
CC(C)(C)c1cc(C(=O)N2CCC(c3cnccn3)CC2)[nH]n1 | -5.82
CCCn1cc(Cl)c(C(=O)N2C[C@@H](O)[C@H](Oc3ccccc3)C2)n1 | 1.62
CN(Cc1ccc(F)cc1)[C@@H]1CN(S(C)(=O)=O)C[C@H]1O | -4.5
CNc1cncc(C2CCCN2C(=O)CCn2ccnc2)n1 (centres undefined) | -6.98

Structure (SMILES) | cytotoxicity at 70.5 h [%]
CO[C@@H]1CCC[C@@H](N(C)C(=O)c2cn3cc(C)ccc3n2)[C@H]1O | -8.11
C[C@@H]1CN(Cc2ccco2)CCN1C(=O)Cc1ccccc1F | -10.6
CCSCc1nc(O)c2nnn(C3CCN(Cc4ccco4)CC3)c2n1 | 9.06
CCSCc1nc(O)c2nnn(C3CCN(Cc4ccoc4)CC3)c2n1 | -14.9
CS(=O)(=O)N1CCCC(n2nnn(-c3ccccc3)c2=O)C1 (centres undefined) | -8.01
CCS(=O)(=O)N1CCCC(n2nnn(-c3ccccc3)c2=O)C1 (centres undefined) | -4.32
CC1(C(=O)N2CCSCC2)CNCCO1 (centres undefined) | 11.8
CNC(=O)CCc1cc(C)nc(C2CCN(c3ccccc3)CC2)c1 | -3.63
CNC(=O)CCc1cc(C2CCN(c3cnccn3)CC2)nc(C)n1 | -8.81
CCCC(=O)NCCc1nc(N(C)C)ncc1-c1ccncc1 | -7.54
COCC(=O)NCCc1nc(N(C)C)ncc1-c1ccncc1 | -6.86
CC(C)C(=O)N1CCC([C@@H]2C[C@H](C(F)F)n3ncnc3N2)CC1 | 9.09
COCCNCc1cc2ccc(C)c(C)c2[nH]c1=O | 4.37
CSc1nnc(C2CCN(C(=O)N3CCCC3)CC2)n1C | -9.43
CSc1nnc(C2CCN(C(=O)N3CCCC3)CC2)n1C(C)C | 2.59
CS(=O)(=O)c1cc(Cl)cnc1C1CCCN(C(=O)C2CCOCC2)C1 (centres undefined) | -7.95
COc1ccc(S(=O)(=O)N2CCC[C@@H]3CN(C(=O)C4CC4)C[C@@H]32)cc1F | 21.2
CCc1cccc2cc(CNCCOC)c(=O)[nH]c12 | 21.7
COc1ccc(S(=O)(=O)N2CCC[C@@H]3CN(C(=O)C4CC4)C[C@@H]32)cc1 | 50
CCN(CC)C1CCN(C(=O)c2cc3cc(C)cc(C)c3nc2C)CC1 | -2.42
CN(C)[C@@H]1CN(Cc2ccc(O)cc2)C[C@H]1c1cn(C)c2ccccc12 | 3.53
COc1ccc(C(CNS(=O)(=O)c2cn(C)nc2C)N2CCCC2)cc1 (centres undefined) | 26.7
